The results in this text go back to patent US8273774B2, “Phenoxypyridinylamide compounds” (AstraZeneca AB, priority 2008, dated 2012).

Structures are written as SMILES.

The target of this test is recombinant Human Phosphodiesterase B2 (PDE4B2) (Homo sapiens, UniProt Q07343). Kind of test: Human Phosphodiesterase B2 Radiometric Assay. Format: biochemical. The note with it: 0.1 μg/mL recombinant PDE4B2; preincubated at 30 C for 30 min; [3H]cyclic AMP 8 nM, stopped after 20 min; yttrium silicate SPA beads; read-out: PDE4B2 pIC50 (converted). The method, then: Human Phosphodiesterase B2 Radiometric Assay
recombinant Human Phosphodiesterase B2 (PDE4B2), sequence (Q07343 1-564 isoform Q07343-2): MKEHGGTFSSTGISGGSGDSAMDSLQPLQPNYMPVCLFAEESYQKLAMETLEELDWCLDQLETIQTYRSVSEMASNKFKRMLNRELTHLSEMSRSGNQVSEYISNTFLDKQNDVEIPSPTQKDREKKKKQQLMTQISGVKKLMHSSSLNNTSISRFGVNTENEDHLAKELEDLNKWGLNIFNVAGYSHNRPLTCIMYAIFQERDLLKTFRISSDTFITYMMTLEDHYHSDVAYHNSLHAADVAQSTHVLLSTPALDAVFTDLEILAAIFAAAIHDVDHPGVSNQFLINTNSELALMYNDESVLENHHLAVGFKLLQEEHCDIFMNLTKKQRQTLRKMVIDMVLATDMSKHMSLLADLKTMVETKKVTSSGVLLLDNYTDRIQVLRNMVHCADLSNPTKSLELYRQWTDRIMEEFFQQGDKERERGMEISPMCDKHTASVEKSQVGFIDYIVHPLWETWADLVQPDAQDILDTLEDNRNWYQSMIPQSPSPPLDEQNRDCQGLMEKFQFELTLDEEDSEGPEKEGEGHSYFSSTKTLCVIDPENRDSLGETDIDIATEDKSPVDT
The assay uses recombinant Human Phosphodiesterase B2 (PDE4B2) produced in house (PrAZL0163), stored at −20° C. This assay is based on the observation that 5′AMP, the product of the reaction catalysed by PDE4, binds preferentially to yttrium silicate SPA beads (Amersham Biosciences, UK) compared to the substrate, cAMP. Compounds at the appropriate concentration were preincubated at 30 C for 30 min with an assay buffer containing 50 mM HEPES (pH 7.5), 8.3 mM MgCl2, 1.7 mM EGTA, 0.01% (w/v) Brij®35 and 0.1 μg/mL recombinant PDE4B2. The reaction was started by the addition of [3H]cyclic AMP to give a final concentration of 8 nM, and was stopped 20 min after the addition of the substrate by the addition of yttrium silicate SPA beads containing 18 mM Zn SO4. Bound […] was measured using a Topcount NXT (Packard Bioscience, UK). pIC50 values (presented in Table 2) were determined using Xlfit3 curve fitting, using model 205.
As to `Cc1cc(C(=O)N[C@H]2CC[C@@H](NC(=O)c3cc(F)cnc3Oc3cccc(-c4cccc(CCCN5CCN[C@@H](C)C5)c4)c3)CC2)nn1C` [Example 139, N-((1s,4s)-4-(1,5-dimethyl-1H-pyrazole-3-carboxamido)cyclohexyl)-5-fluoro-2-(3′-(3-((S)-3-methylpiperazin-1-yl)propyl)biphenyl-3-yloxy)nicotinamide], the IC50 was 0.0794 nM.
With `C[C@@H]1CN(CCCc2ccc(-c3cccc(Oc4ncc(F)cc4C(=O)N[C@H]4CC[C@@H](NC(=O)c5cn6c(n5)CCCC6)CC4)c3)cc2)C[C@H](C)N1` [Example 104, N-((1s,4s)-4-(2-(4′-(3-((3S,5R)-3,5-dimethylpiperazin-1-yl)propyl)biphenyl-3-yloxy)-5-fluoronicotinamido)cyclohexyl)-5,6,7,8-tetrahydroimidazo[1,2-a]pyridine-2-carboxamide], the IC50 is 0.0316 nM.
For the compound `Cc1nc(C(=O)N[C@H]2CC[C@@H](NC(=O)c3cc(F)cnc3Oc3cccc(-c4ccc(O)cc4CN(C)C(C)(C)C)c3)CC2)cs1` [Example 26, N-((1s,4s)-4-(2-(2′-((tert-butyl(methyl)amino)methyl)-4′-hydroxybiphenyl-3-yloxy)-5-fluoronicotinamido)cyclohexyl)-2-methylthiazole-4-carboxamide], the IC50 was 0.2 nM.
On to `C[C@@H]1CN(CCCc2ccc(-c3cccc(Oc4ncc(F)cc4C(=O)N[C@H]4CC[C@@H](NC(=O)c5cc6n(n5)CCC6)CC4)c3)cc2)C[C@H](C)N1` [Example 140, N-((1s,4s)-4-(2-(4′-(3-((3S,5R)-3,5-dimethylpiperazin-1-yl)propyl)biphenyl-3-yloxy)-5-fluoronicotinamido)cyclohexyl)-5,6-dihydro-4H-pyrrolo[1,2-b]pyrazole-2-carboxamide], for which the IC50 was 0.0316 nM.
In the case of `O=C(N[C@H]1CC[C@@H](NC(=O)c2cc(F)cnc2Oc2cccc(-c3ccc(CCCN4CCNCC4)cc3)c2)CC1)c1cc(C2CC2)n[nH]1` [Example 173, N-((1s,4s)-4-(3-Cyclopropyl-1H-pyrazole-5-carboxamido)cyclohexyl)-5-fluoro-2-(4′-(3-(piperazin-1-yl)propyl)biphenyl-3-yloxy)nicotinamide], the IC50 is 0.0398 nM.
For `Cc1cc(C(=O)N[C@H]2CC[C@@H](NC(=O)c3cc(F)cnc3Oc3cccc(-c4ccc(CN5CCSCC5)cc4CN4CCOCC4)c3)CC2)nn1C` [Example 138, N-((1s,4s)-4-(1,5-dimethyl-1H-pyrazole-3-carboxamido)cyclohexyl)-5-fluoro-2-(2′-(morpholinomethyl)-4′-(thiomorpholinomethyl)biphenyl-3-yloxy)nicotinamide], the IC50 was 0.0251 nM.
The result for `COc1c(CN2C[C@@H](C)N[C@@H](C)C2)cccc1-c1cccc(Oc2ncc(F)cc2C(=O)N[C@H]2CC[C@@H](NC(=O)c3cc(C)n(C)n3)CC2)c1` [Example 106, N-((1s,4s)-4-(1,5-dimethyl-1H-pyrazole-3-carboxamido)cyclohexyl)-2-(3′-(((3S,5R)-3,5-dimethylpiperazin-1-yl)methyl)-2′-methoxybiphenyl-3-yloxy)-5-fluoronicotinamide] reads 0.251 nM.
`Cc1cccc(CN[C@H]2CC[C@@H](NC(=O)c3cc(F)cnc3Oc3cccc(-c4ccc(O)cc4CN4CCOCC4)c3)CC2)n1` [Example 6, 5-fluoro-2-(4′-hydroxy-2′-(morpholinomethyl)biphenyl-3-yloxy)-N-((1s,4s)-4-((6-methylpyridin-2-yl)methylamino)cyclohexyl)nicotinamide]: the IC50 is 3.16 nM.
As for `C[C@H]1COCCN1Cc1cc(CN2CCCN(CCO)CC2)ccc1-c1cccc(Oc2ncc(F)cc2C(=O)N[C@H]2CC[C@@H](NC(=O)c3cccc4[nH]cnc34)CC2)c1` [Example 180, N-((1s,4s)-4-(5-Fluoro-2-(4′-((4-(2-hydroxyethyl)-1,4-diazepan-1-yl)methyl)-2′-(((S)-3-methylmorpholino)methyl)biphenyl-3-yloxy)nicotinamido)cyclohexyl)-1H-benzo[d]imidazole-4-carboxamide], the IC50 is 0.0158 nM.
On to `CN(C)Cc1cc(O)ccc1-c1cccc(Oc2ncc(F)cc2C(=O)N[C@H]2CC[C@@H](NC(=O)c3nc4ccccc4s3)CC2)c1` [Example 44, N-((1s,4s)-4-(2-(2′-((dimethylamino)methyl)-4′-hydroxybiphenyl-3-yloxy)-5-fluoronicotinamido)cyclohexyl)benzo[d]thiazole-2-carboxamide], for which the IC50 is 0.1 nM.
For `Cc1cc(C(=O)N[C@H]2CC[C@@H](NC(=O)c3cc(F)cnc3Oc3cccc(-c4ccc(O)cc4CN4CCSCC4)c3)CC2)nn1C` [Example 22, N-((1s,4s)-4-(1,5-dimethyl-1H-pyrazole-3-carboxamido)cyclohexyl)-5-fluoro-2-(4′-hydroxy-2′-(thiomorpholinomethyl)biphenyl-3-yloxy)nicotinamide], the IC50 is 0.0398 nM.
As for `Cc1cc(C(=O)N[C@H]2CC[C@@H](NC(=O)c3cc(F)cnc3Oc3cccc(-c4cccc(CCN5C[C@@H](C)N[C@@H](C)C5)c4)c3)CC2)nn1C` [Example 103, N-((1s,4s)-4-(1,5-dimethyl-1H-pyrazole-3-carboxamido)cyclohexyl)-2-(3′-(2-((3S,5R)-3,5-dimethylpiperazin-1-yl)ethyl)biphenyl-3-yloxy)-5-fluoronicotinamide], the IC50 was 0.0316 nM.
Consider `Cc1nc(C(=O)N[C@H]2CC[C@@H](NC(=O)c3cc(F)cnc3Oc3cccc(-c4ccc(CCCN5C[C@@H](C)N[C@@H](C)C5)cc4)c3)CC2)cs1` [Example 75, N-((1s,4s)-4-(2-(4′-(3-((3S,5R)-3,5-dimethylpiperazin-1-yl)propyl)biphenyl-3-yloxy)-5-fluoronicotinamido)cyclohexyl)-2-methylthiazole-4-carboxamide], for which the IC50 was 0.0316 nM.
In the case of `Cc1nc(C(=O)N[C@H]2CC[C@@H](NC(=O)c3cc(F)cnc3Oc3cccc(-c4ccc(CN5C[C@@H](C)N[C@@H](C)C5)cc4CN4CCSCC4)c3)CC2)cs1` [Example 189, N-((1s,4s)-4-(2-(4′-(((3S,5R)-3,5-dimethylpiperazin-1-yl)methyl)-2′-(thiomorpholinomethyl)biphenyl-3-yloxy)-5-fluoronicotinamido)cyclohexyl)-2-methylthiazole-4-carboxamide], the IC50 is 0.0158 nM.
On to `C[C@@H]1CN(CCCc2ccc(-c3cccc(Oc4ncc(F)cc4C(=O)N[C@H]4CC[C@@H](NC(=O)c5cscn5)CC4)c3)cc2)C[C@H](C)N1` [Example 155, N-((1s,4s)-4-(2-(4′-(3-((3S,5R)-3,5-dimethylpiperazin-1-yl)propyl)biphenyl-3-yloxy)-5-fluoronicotinamido)cyclohexyl)thiazole-4-carboxamide], for which the IC50 is 0.0398 nM.
Under `Cc1nc(C(=O)N[C@H]2CC[C@@H](NC(=O)c3cc(F)cnc3Oc3cccc(-c4ccc(CN5C[C@@H](C)N[C@@H](C)C5)cc4)c3)CC2)cs1` [Example 54, N-((1s,4s)-4-(2-(4′-(((3S,5R)-3,5-dimethylpiperazin-1-yl)methyl)biphenyl-3-yloxy)-5-fluoronicotinamido)cyclohexyl)-2-methylthiazole-4-carboxamide] stands 0.0631 nM; under `Cc1cc(C(=O)N[C@H]2CC[C@@H](NC(=O)c3cc(F)cnc3Oc3cccc(-c4cccc(CCCN5CCNCC5)c4)c3)CC2)nn1C` [Example 108, N-((1s,4s)-4-(1,5-dimethyl-1H-pyrazole-3-carboxamido)cyclohexyl)-5-fluoro-2-(3′-(3-(piperazin-1-yl)propyl)biphenyl-3-yloxy)nicotinamide], 0.02 nM.
